# Results: PMC5701947, “β1-Adrenergic Receptor Contains Multiple IA^k and IE^k Binding Epitopes That Induce T Cell Responses with Varying Degrees of Autoimmune Myocarditis in A/J Mice” (Frontiers in Immunology, 2017)
# No end group written: not given here.
# Columns and labels:
# [1] = tested on: CD4 T cells; assay: IE^k dextramer staining of CD4 T cells; format: cell-based, A/J mice; details: IE^k dextramers; cells from β1ARAc 181–200-immunized mice; P = 0.028 vs control dextramer; Figure 4B
# Excerpt: To enumerate the frequencies of antigen-specific CD4 T cells, we created IA^k dextramers for β1AR 171-190 and β1AR 211–230, and IE^k dextramers for β1AR 181–200. To create IA^k dextramers, the nucleotide sequence for β1AR 171–190 ([…]) and β1AR 211–230 ([…]) was inserted into the IA^k-β construct that we had described previously ([35], [39]), whereas IA^k/RNase 43–56 (control) dextramers were readily available in our laboratory ([30], [35], [40]). The soluble, IA^k/β1AR 171–190 and IA^k/β1AR 211–230 molecules were expressed in sf9 cells using baculovirus expression system. After purifying through anti-IA^k-affinity column, the IA^k/β1AR 171–190 and IA^k/β1AR 211–230 monomers were biotinylated and dextramers were derived using streptavidin (SA)/fluorophore-conjugated dextran molecules as described previously ([35], [39]). […]
# To stain with dextramers, lymphocytes obtained from lymph nodes and spleens from immunized animals were stimulated with the immunizing peptides namely, β1ARAc 171–190, β1ARAc 181–200, and β1ARAc 211–230 (20 µg/ml) for 2 days and growth medium containing interleukin (IL)-2 (IL-2 medium) was then added. […] After washing, and acquisition by flow cytometry, percent dextramer^+ (dext^+) cells were analyzed within the live cells (7-AAD^−) using Flow Jo software ([34], [35], [39]).
# [2] = tested on: lymph node cell (LNC) cultures; assay: Cytokine secretion (bead array); format: cell-based, A/J mice; details: LNC supernatants, 50–100 µg/ml, day 3; P = 0.06
# Experimental: Supernatants were obtained from lymph node cell (LNC) cultures prepared from immunized animals that were stimulated with or without acetylated or non-acetylated, β1AR 171–190, β1AR 181–200, and β1AR 211–230 and RNase 43–56/HEL 46–61 (controls) (50–100 µg/ml) on day 3 poststimulations. Cytokine analysis was performed using beads conjugated with capture and detection Abs with the standard curves being derived from serial dilutions of mouse cytokine standard mixtures, consisting of IL-2, interferon (IFN)-γ, IL-4, IL-6, IL-10, IL-17A, and tumor necrosis factor (TNF)-α as recommended by the manufacturer’s guidelines (BD Biosciences). Briefly, capture bead/cytokine antibody conjugates were first prepared, and the mixtures were added to a tube containing diluted standards or test samples, followed by addition of detection antibodies. After acquiring by flow cytometry, FCAP Array Software was used to analyze the data (BD Biosciences) ([26], [30]).
# [3] = tested on: antigen-primed T cells; assay: Cytokine-producing cells after Th1/Th17 polarization (flow cytometry); format: cell-based, A/J mice; details: Figure S4
# Experimental: Lymph node cells obtained from animals immunized with individual peptides, β1ARAc 171–190, β1ARAc 181–200, or β1ARAc 211–230 on day 21 postimmunizations were stimulated with the corresponding immunizing peptides (20 µg/ml) for 2 days followed by resting in IL-2 medium. In a separate set of experiments, animals were immunized with a mixture of β1ARAc 171–190, 181–200, and 211–230 peptides and their lymphocytes were stimulated with the immunizing peptides individually (50 µg/ml) for 2 days and then IL-2 medium was added. On day 3, one of the two aliquots of cells were exposed to a mixture of Th1- and Th17-polarizing conditions by adding recombinant mouse IL-12 (20 ng/ml), IL-1β (30 ng/ml), IL-6 (30 ng/ml), IL-23 (50 ng/ml) (all cytokines were procured from BioLegend, San Diego, CA, USA), and human transforming growth factor-β1 (10 ng/ml; eBioscience, San Diego, CA, USA) as reported previously ([41]–[44]), and the other was maintained in IL-2 medium alone. Flow cytometrically, we analyzed the percentages of cytokine-producing cells on days 3 and 6 following polarization as we have described previously ([28], [31], [40]). Viable cells harvested on days 8–10 were administered through i.p., or retro-orbital sinus (4–14 × 10^6 cells/animal) into naive mice primed with lipopolysaccharide (LPS, 25 µg/mouse i.p., day −4 and day 0). […]
# [4] = tested on: T cells (lymph node cells/splenocytes from immunized animals); assay: T cell proliferation assay ([3H]-thymidine); format: cell-based, A/J mice; details: for T cell responses: animals immunized with pool IV, fold vs medium control
# How it was run: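 Lymph node cells and splenocytes from immunized animals, or magnetically enriched CD4/CD8 T cells (~95% pure) plus peptide-loaded irradiated syngeneic naive splenocytes (1:1), stimulated at ~5 × 10^6 cells/ml with immunizing peptide (0–100 µg/ml) for 2 days. Pulsed with [3H]-thymidine for 16 h; proliferation read as cpm.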
# [5] = tested on: A/J mice (hearts); assay: Induction of myocarditis by active immunization with peptides (histology); format: in vivo; details: for Myocarditis incidence / Myocarditis incidence (animals with disease/total) / Inflammatory foci: individual non-acetylated peptide, 100 µg per animal; for Myocarditis incidence / Myocarditis incidence (animals with disease/total): CFA/PT, days 0 and 7, day 21; for Inflammatory foci: mean ± SEM of myocarditic animals
# [6] = tested on: Balb/c mice; details: cited from earlier work
# Excerpt: It has been proposed that acetylated peptides can be prevented from intracellular degradation leading to their stable binding to MHC molecules ([29], [50]). Thus, we decided to use the acetylated peptides, and focused only the peptides that were located within the stretch of β1AR 171–230 (Table 1).
# [7] = tested on: CD8 T cells; assay: T cell proliferation assay, enriched CD8 T cells; format: cell-based, A/J mice; details: CD8 T cells ~95% purity from immunized mice; peptide-loaded irradiated splenocytes 1:1; Figure S3B
# Experimental: (§1) At termination, lymph nodes (maxillary, mandibular, axillary, inguinal, and popliteal) and spleens were harvested from immunized animals to prepare single cell suspensions. Similarly, splenocytes were prepared from naive animals. After lysing the erythrocytes and washing, cell pellets were suspended in RPMI medium containing 10% fetal bovine serum, 1 mM sodium pyruvate, 4 mM L-glutamine, 1 × each of non-essential amino acids and vitamin mixture, and 100 U/ml penicillin–streptomycin (Lonza, Walkersville, MD, USA; hereafter called growth medium). In some experiments, CD4 T cells and CD8 T cells were enriched to a purity of ~95% by negative selection based on magnetic separation using IMAG (BD Biosciences, San Jose, CA, USA) ([31]). To stimulate CD4 and CD8 T cells, syngeneic naive irradiated splenocytes loaded with peptides were used as antigen-presenting cells at a ratio of 1:1. Cells were stimulated at a density of ~5 × 10^6 cells/ml in triplicates with or without the immunizing peptides (0–100 µg/ml) in growth medium. RNase 43–56 or HEL 46–61 were used as irrelevant controls. After 2 days, cells were pulsed with tritiated ^3[H]-thymidine (1 μCi/well; MP Biomedicals, Santa Ana, CA, USA), and 16 h later, proliferative responses were measured as counts per minute (cpm) using a Wallac liquid scintillation counter (Perkin Elmer, Waltham, MA, USA) ([26], [28], [30]).
# [8] = tested on: CD4 T cells; assay: T cell proliferation assay, enriched CD4 T cells; format: cell-based, A/J mice; details: CD4 T cells ~95% purity from immunized mice; peptide-loaded irradiated splenocytes 1:1; Figure S3B
# Experimental: as §1
Substance,IL-17A production (in words) [2],T cell responses ([4]; 10 μg/ml) [fold],T cell responses ([4]; 100 μg/ml) [fold],Myocarditis incidence [5] [%],Myocarditis incidence (animals with disease/total) [5],Inflammatory foci [5],also measured
FAGLKKANERADLIAYLKQATK [MCC 82–103],–,–,–,–,–,–,percent dext^+ CD4^high T cells [1]: 0.33 ± 0.03%
"TVWAISALVSFLPILMHWWR [β1AR 181-200, 20-mer of mouse β1AR peptide library]",tended to be elevated,1.70,2.30,20,1/5,2,"Th1 cytokine-producing cells (in words) [3]: significantly enhanced; Disease severity (in words) ([5]; individual immunization, non-acetylated peptides): mild disease"
"TRARARALVCTVWAISALVS [β1AR 171-190, 20-mer of mouse β1AR peptide library]",tended to be elevated,2.68,5.13,0,0/5,0,–
"Myhc 614–643: cardiac myosin heavy chain-α 614–643 (Ac-SLKLMATLFSTYASADTGDSGKGKGGKKKG; UniProt Q02566 614-643, looked up, fragment)",–,–,–,–,–,–,Myocarditis by N-terminally acetylated peptide (in words) [6]: can induce significant myocarditis
YNTDGSTDYGILQINSR [HEL 46–61],–,–,–,–,–,–,"T cell responses (in words) ([4]; proliferation, 0–100 µg/ml, 2 days + 16 h [3H]-thymidine, cpm): lacking; CD8 T cell proliferative response (in words) [7]: lacking; CD4 T cell proliferative response (in words) [8]: lacking"
